Laboratory results: the supplement of paper PMC10307832

How the values were obtained:
Assay in all cases: relative viability (nuclei count vs DMSO), 5 days (fraction); higher = more cells survive
[1] = compound: CN(c1ncccc1CNc1nc(Nc2ccc3c(c2)CC(=O)N3)ncc1C(F)(F)F)S(C)(=O)=O + Nc1ncn([C@H]2C[C@H](O)[C@@H](CO)O2)c(=O)n1 [Decitabine] (partner 2 µM)
Method in brief: (§1)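 Lung cancer cell lines were seeded in 1536-well plates and dosed by pin tool the next day, with either a single drug or a fixed anchor-drug dose combined with five library-drug doses (not always all listed) spaced in √10 steps. Five days later, one step fixed the cells and stained their nuclei (final 0.05% Triton X-100, 1% formaldehyde, 1 ug/ml Hoechst), and nuclei were counted on 4× images. Relative viability is the nuclei count in treated wells divided by the count in vehicle wells, and each value is the median of duplicate plates.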

[2] = compound: CN(c1ncccc1CNc1nc(Nc2ccc3c(c2)CC(=O)N3)ncc1C(F)(F)F)S(C)(=O)=O + NC(=O)Nc1cc(-c2cccc(F)c2)sc1C(=O)N[C@H]1CCCNC1 [AZD7762] (partner 0.2 µM)
Method in brief: as §1

[3] = compound: CN(c1ncccc1CNc1nc(Nc2ccc3c(c2)CC(=O)N3)ncc1C(F)(F)F)S(C)(=O)=O + O=C(c1cc(Cc2n[nH]c(=O)c3ccccc23)ccc1F)N1CCN(C(=O)C2CC2)CC1 [Olaparib] (partner 8 µM)
Method in brief: as §1

[4] = compound: CN(c1ncccc1CNc1nc(Nc2ccc3c(c2)CC(=O)N3)ncc1C(F)(F)F)S(C)(=O)=O + CS(=O)(=O)CCNCc1ccc(-c2ccc3ncnc(Nc4ccc(OCc5cccc(F)c5)c(Cl)c4)c3c2)o1 [Lapatinib] (partner 2 µM)
Method in brief: as §1

Cell Line	relative viability ([1]; first compound 0.01 µM)	relative viability ([1]; first compound 0.03162 µM)	relative viability ([1]; first compound 0.1 µM)	relative viability ([1]; first compound 0.3162 µM)	relative viability ([1]; first compound 1 µM)	relative viability ([2]; first compound 0.01 µM)	relative viability ([2]; first compound 0.03162 µM)	relative viability ([2]; first compound 0.1 µM)	relative viability ([2]; first compound 0.3162 µM)	relative viability ([2]; first compound 1 µM)	relative viability ([3]; first compound 0.01 µM)	relative viability ([3]; first compound 0.03162 µM)	relative viability ([3]; first compound 0.1 µM)	relative viability ([3]; first compound 0.3162 µM)	relative viability ([3]; first compound 1 µM)	relative viability ([4]; first compound 0.01 µM)	relative viability ([4]; first compound 0.03162 µM)	relative viability ([4]; first compound 0.1 µM)	relative viability ([4]; first compound 0.3162 µM)	relative viability ([4]; first compound 1 µM)
LC-2-ad	0.789	0.833	0.828	0.852	0.863	0.864	0.808	0.892	0.768	0.811	0.732	0.703	0.703	0.664	0.596	1.12	0.958	1	0.864	0.756
LCLC-97TM1	0.228	0.212	0.2	0.238	0.215	0.264	0.278	0.218	0.267	0.195	0.45	0.414	0.401	0.291	0.261	–	0.658	0.841	0.752	0.516
LK-2	0.287	0.294	0.31	0.308	0.292	0.542	0.517	0.413	0.434	0.397	0.807	0.846	0.615	0.639	0.542	1.16	1.21	1.02	0.984	1
LOU-NH91	0.863	0.832	0.812	0.844	0.839	0.793	0.754	0.735	0.746	0.79	0.888	0.92	0.883	0.972	0.858	0.777	0.714	0.73	0.743	0.741
LU99A	0.959	0.996	0.907	0.874	0.913	0.377	0.507	0.509	0.572	0.476	0.26	0.305	0.302	0.261	0.236	0.971	1.19	1.01	1.17	1.08
LXF-289	0.374	0.427	0.419	0.412	0.447	1.16	1.17	1.1	1.13	1.2	1.1	1.21	1.04	1.11	1.02	0.949	0.883	0.9	0.925	0.89
NCI-H23	0.308	0.345	0.319	0.332	0.292	0.245	0.276	0.243	0.289	0.382	0.337	0.345	0.389	0.319	0.306	1.26	1.25	1.11	1.21	0.987
NCI-H322M	0.697	0.802	0.775	0.681	0.714	0.584	0.556	0.62	0.663	0.813	0.741	0.774	0.739	0.878	0.832	0.585	0.675	–	0.596	0.653
NCI-H358	0.195	0.221	0.251	0.221	0.183	0.552	0.553	0.381	0.533	0.339	0.61	0.57	0.573	0.532	0.416	0.449	0.414	0.42	0.431	0.397
NCI-H460	0.477	0.702	0.537	0.493	0.549	0.714	0.824	0.643	0.661	0.684	0.443	0.573	0.464	0.464	0.396	1.11	1.65	0.963	0.964	1.02
NCI-H596	1.15	1.01	1.11	1.03	1.13	0.999	1.1	0.948	1.05	1.05	0.634	0.655	0.664	0.674	0.723	1.05	1.16	0.929	0.979	1.06
NCI-H647	0.425	0.51	0.498	0.544	0.502	0.383	0.515	0.611	0.566	0.471	0.528	0.494	0.708	0.597	0.488	1.19	1.3	1.11	1.04	1.03
NCI-H650	0.316	0.351	0.342	0.285	0.307	0.909	1.08	0.822	0.948	0.995	0.372	0.376	0.389	0.367	0.358	0.977	0.971	0.813	0.703	0.992
NCI-H727	0.943	0.827	0.793	0.896	0.936	0.595	0.555	0.447	0.842	0.69	0.776	0.707	0.77	0.635	0.715	0.813	1.09	0.549	0.85	0.676
NCI-H838	0.46	0.472	0.5	0.444	0.397	0.994	0.955	0.964	0.861	0.933	0.736	0.809	0.725	0.55	0.43	0.958	1.23	0.981	0.753	0.638
NCI-H1355	0.368	0.36	0.337	0.404	0.379	0.866	0.864	0.944	0.732	0.697	0.7	0.784	0.713	0.691	0.669	1.03	1.04	0.985	0.919	0.873

Cell Line	relative viability ([1]; first compound 0.01 µM)	relative viability ([1]; first compound 0.03162 µM)	relative viability ([1]; first compound 0.1 µM)	relative viability ([1]; first compound 0.3162 µM)	relative viability ([1]; first compound 1 µM)	relative viability ([2]; first compound 0.01 µM)	relative viability ([2]; first compound 0.03162 µM)	relative viability ([2]; first compound 0.1 µM)	relative viability ([2]; first compound 0.3162 µM)	relative viability ([2]; first compound 1 µM)	relative viability ([3]; first compound 0.01 µM)	relative viability ([3]; first compound 0.03162 µM)	relative viability ([3]; first compound 0.1 µM)	relative viability ([3]; first compound 0.3162 µM)	relative viability ([3]; first compound 1 µM)	relative viability ([4]; first compound 0.01 µM)	relative viability ([4]; first compound 0.03162 µM)	relative viability ([4]; first compound 0.1 µM)	relative viability ([4]; first compound 0.3162 µM)	relative viability ([4]; first compound 1 µM)
NCI-H1395	0.711	0.767	0.678	0.771	0.785	0.41	0.368	0.421	0.398	0.424	0.454	0.484	0.492	0.457	0.471	0.934	0.974	0.998	1.23	1.19
NCI-H1437	0.535	0.661	0.502	0.498	0.422	1.12	1.17	1.15	1.08	1.07	0.63	0.633	0.59	0.583	0.466	0.876	0.944	0.813	0.722	0.725
NCI-H1651	0.657	0.695	0.623	0.713	0.576	0.507	0.469	0.488	0.534	0.484	0.187	0.172	0.204	0.183	0.197	0.82	1.02	0.9	0.731	0.784
NCI-H1666	0.729	0.749	0.642	0.666	0.628	0.978	0.834	0.838	0.932	0.847	0.671	0.755	0.702	0.744	0.706	0.678	0.624	0.611	0.546	0.493
NCI-H1734	0.473	0.535	0.571	0.524	0.55	0.55	0.659	0.667	0.782	0.742	0.586	0.677	0.614	0.594	0.596	0.993	1.17	1.06	1.1	1.05
NCI-H1755	0.682	0.728	0.721	0.646	0.707	0.585	0.398	0.488	0.502	0.437	0.909	0.904	0.83	0.791	0.839	1.09	1.08	1.01	0.961	0.957
NCI-H1792	0.469	0.586	0.523	0.606	0.586	0.721	0.822	0.674	0.722	0.755	0.414	0.386	0.691	0.495	0.386	0.93	0.937	0.905	0.827	0.835
NCI-H1793	0.494	0.563	0.458	0.45	0.432	0.407	0.541	0.543	0.53	0.452	0.88	0.685	0.777	0.948	0.769	0.542	0.654	0.79	0.575	0.691
NCI-H1915	0.278	0.258	0.264	0.247	0.256	0.762	0.654	0.696	0.703	0.76	0.272	0.241	0.262	0.264	0.285	0.99	0.919	0.912	0.93	0.969
NCI-H1944	0.448	0.474	0.467	0.432	0.445	0.723	0.571	0.602	0.672	0.658	0.402	0.421	0.416	0.436	0.42	0.815	0.898	0.782	0.869	0.792
NCI-H1975	0.423	0.403	0.432	0.417	0.436	0.85	0.839	0.822	0.645	0.755	0.799	0.873	0.821	0.832	0.7	0.921	0.971	0.914	0.926	0.723
NCI-H1993	0.624	0.609	0.56	0.574	0.605	0.852	0.837	0.836	0.634	0.737	1.13	0.977	1	1.1	0.92	0.804	0.91	0.82	0.889	0.769
NCI-H2085	0.545	0.577	0.547	0.548	0.522	1	1.02	1.02	1.07	1.03	0.79	0.81	0.71	0.759	0.696	0.777	0.81	0.797	0.696	0.662
NCI-H2087	0.312	0.255	0.256	0.36	0.299	1.28	1.3	1.32	1.35	1.2	0.634	0.639	0.614	0.464	0.668	1.44	1.12	0.876	0.927	0.893
NCI-H2126	0.623	0.615	0.564	0.557	0.53	1.03	1.08	0.961	0.904	0.902	0.879	1.01	0.865	0.867	0.795	0.732	0.732	0.713	0.774	0.721
NCI-H2170	0.528	0.463	0.417	0.459	0.448	0.942	1.02	0.794	0.96	0.914	0.684	0.652	0.672	0.604	0.521	0.263	0.254	0.267	–	0.276
